From ChEMBL document CHEMBL2073890, “Multispecific amphipathic substrate transport by an organic anion transporter of human liver” (J Hepatol, 1996)

Legend:
Assay type in all cases: functional, cell-based, Oocyte
[1] = target: T1, Solute carrier organic anion transporter family member 1A2 (OATP1A2) (Homo sapiens, UniProt P46721); assay: TP_TRANSPORTER: uptake in Xenopus laevis oocytes
T1 sequence (P46721 whole entry): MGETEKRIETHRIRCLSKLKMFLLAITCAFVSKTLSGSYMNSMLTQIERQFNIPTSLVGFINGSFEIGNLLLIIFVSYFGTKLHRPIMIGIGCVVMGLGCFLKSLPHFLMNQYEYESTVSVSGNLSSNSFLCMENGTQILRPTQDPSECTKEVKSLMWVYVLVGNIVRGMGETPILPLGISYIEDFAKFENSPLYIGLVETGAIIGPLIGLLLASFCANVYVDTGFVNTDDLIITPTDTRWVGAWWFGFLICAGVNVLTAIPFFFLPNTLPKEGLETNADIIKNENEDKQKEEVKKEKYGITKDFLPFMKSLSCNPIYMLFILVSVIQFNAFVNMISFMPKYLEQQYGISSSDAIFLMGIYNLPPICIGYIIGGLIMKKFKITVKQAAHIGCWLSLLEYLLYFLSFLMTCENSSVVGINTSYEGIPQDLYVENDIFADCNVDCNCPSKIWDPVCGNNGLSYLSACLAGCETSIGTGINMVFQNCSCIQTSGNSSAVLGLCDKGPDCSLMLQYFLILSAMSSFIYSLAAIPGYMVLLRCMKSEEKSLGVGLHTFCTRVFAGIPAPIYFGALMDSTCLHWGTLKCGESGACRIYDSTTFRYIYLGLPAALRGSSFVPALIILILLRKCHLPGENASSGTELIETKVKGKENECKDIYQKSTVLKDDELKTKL

[2] = target: T1, Solute carrier organic anion transporter family member 1A2 (OATP1A2); assay: TP_TRANSPORTER: inhibition of E1S uptake (E1S: 0.2 uM, TCDC: 100 uM) in Xenopus laevis oocytes; details: probe E1S (estrone sulfate)
[3] = target: T1, Solute carrier organic anion transporter family member 1A2 (OATP1A2); assay: TP_TRANSPORTER: inhibition of Ouabain uptake (Ouabain: 100 uM, TCDC: 100 uM) in Xenopus laevis oocytes; details: probe Ouabain

Structure (SMILES)	Km [1] [µM]	inhibition at 100 µM [2] [%]	inhibition at 100 µM [3] [%]
C[C@]12CC[C@@H]3c4ccc(OS(=O)(=O)O)cc4CC[C@H]3[C@@H]1CCC2=O [ESTRONE SULFURIC ACID]	59		
C[C@@H]1O[C@@H](O[C@H]2C[C@@H](O)[C@]3(CO)[C@H]4[C@H](O)C[C@]5(C)[C@@H](C6=CC(=O)OC6)CC[C@]5(O)[C@@H]4CC[C@]3(O)C2)[C@H](O)[C@H](O)[C@H]1O [OUABAIN]	5500		
C[C@H](CCC(=O)NCCS(=O)(=O)O)[C@H]1CC[C@H]2[C@@H]3[C@H](O)C[C@@H]4C[C@H](O)CC[C@]4(C)[C@H]3CC[C@]12C [TAUROCHENODEOXYCHOLATE]		91	100
